Measured values reported in patent publication US20070135499A1 (Aerie Pharmaceuticals, Inc., priority 2005, published 2007).

Target: T1, hGRK-2 (Homo sapiens, UniProt P25098)
T1 sequence (P25098 1-689): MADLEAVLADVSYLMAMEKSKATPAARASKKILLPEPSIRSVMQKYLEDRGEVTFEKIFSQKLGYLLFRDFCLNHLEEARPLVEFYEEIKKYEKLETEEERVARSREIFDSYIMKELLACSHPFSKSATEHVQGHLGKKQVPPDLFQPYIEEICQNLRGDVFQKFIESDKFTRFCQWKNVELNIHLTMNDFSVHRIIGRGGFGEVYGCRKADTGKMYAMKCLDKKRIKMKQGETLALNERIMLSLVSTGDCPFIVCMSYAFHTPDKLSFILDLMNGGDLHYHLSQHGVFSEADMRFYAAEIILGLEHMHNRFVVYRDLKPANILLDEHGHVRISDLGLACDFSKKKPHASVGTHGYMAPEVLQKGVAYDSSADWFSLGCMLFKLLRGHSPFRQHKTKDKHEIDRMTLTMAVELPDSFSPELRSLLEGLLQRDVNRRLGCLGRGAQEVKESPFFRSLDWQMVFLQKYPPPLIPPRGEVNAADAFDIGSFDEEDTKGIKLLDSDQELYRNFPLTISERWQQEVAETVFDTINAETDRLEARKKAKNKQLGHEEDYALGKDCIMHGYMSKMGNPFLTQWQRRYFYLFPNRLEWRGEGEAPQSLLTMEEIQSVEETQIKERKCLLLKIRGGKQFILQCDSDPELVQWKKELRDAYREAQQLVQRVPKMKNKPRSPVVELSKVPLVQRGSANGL
Assay: luciferase-based (Kinase-Glo) biochemical kinase inhibition assay, hGRK-2
Conditions: luciferase assay, casein substrate, 10 μM ATP; read-out: GRK-2 inhibition, Ki class
Procedure: The inhibition of G-protein-coupled receptor kinases including hGRK-2 was determined for the hydrazide compounds using a biochemical assay. The inhibition of GRK-3, GRK-5 and GRK-6 was also determined using the same assay for some of the hydrazide derivatives.
The protein kinase inhibition was determined using a biochemical assay utilizing the light emission of a luciferase reaction. The luciferase-based assay operates on the following reaction principles: [drawing 10]
An inhibitor of GRK-2 will increase in the amount of ATP in solution, as shown. Thus, an inhibitor of GRK-2 will drive the luciferase reaction to the right, resulting in more light emitted. The amount of light emitted is proportional to the inhibition resulting from the GRK-2 inhibitor. The luciferase-based assay was also used to test some of the hydrazides for the inhibition properties towards other kinases.
The test procedure was as follows:
• 50 mM HEPES, pH 7.5 • 10 mM MgCl2 • 100 μM activated sodium orthovanadate • 0.01% CHAPS • 0.1% BSA • 1 mM DTT (added fresh daily) 10× Assay Buffer Stock: • 500 mM HEPES, pH 7.5 • 100 mM MgCl2 • 1 mM activated sodium orthovanadate • 0.1% CHAPS • 1% BSA (leave out for 10× compound dilution buffer) Final Assay Conditions: • 50 μM test compound • 20 μM casein • 10 μM ATP • 50 nM hGRK2 • 4.5% DMSO • 90-120 minute incubation
Stopped by addition of 30 μl 3×-diluted Kinase-Glo reagent containing 0.01% trypan blue. Counted on FUSION plate reader.
Compound Dilution and Transfer
Prepare sufficient buffer containing 40% DMSO to add 20 μl/well to the number of plates being assayed. This buffer should not contain BSA because it will precipitate with addition of 40% DMSO. (EXAMPLE: To make 3000 ml compound dilution buffer: 1200 ml DMSO, 180 ml 10× compound dilution buffer, 1615 ml ultrapure water, 3 ml 1M DTT.).
Using Multidrop, add 20 μl of compound dilution buffer to all wells of the 384-well daughter plate (add 1 μl DMSO to control wells). This will result in a daughter plate which contains 21 μl of ˜500 μM test compound.
Using the PlateTrak, transfer 5 μl of the test compounds to a 384-well, non-binding, white microtiter plate.
Prepare sufficient volume of buffer (with BSA and 1 mM DTT) containing 125 nM GRK2 and 25 μM ATP. (Example: To 219 ml of buffer was added 550 μl 10 mM ATP and 350 μl 79 μM GRK2).
Using Multidrop, add 20 μl of GRK2/ATP mixture to all wells of the microtiter plate.
Prepare sufficient volume of buffer (with BSA and 1 mM DTT) containing 40 μM casein. (EXAMPLE: To 211 ml buffer add 8.8 ml 1 mM casein)
Using Multidrop, add 25 μl to columns 1 through 23 of the microtiter plate. Add 25 μl of complete buffer to column 24 (blanks).
Mix reaction gently by tapping (Multidrop addition of casein does a decent job of mixing), stack plates and incubate at room temperature for between 90 and 120 minutes. Assay progression can be tracked in a separate plate if desired. Target 20-30% ATP consumption. Try to avoid exceeding 40% consumption as kinetics might become non-linear due to substrate (ATP) depletion.
Addition of Kinase-Glo Reagents
The Kinase-Glo reagent can be diluted 3-fold with no loss of data quality in this assay. Additionally, since the library contains many colored compounds which will quench the light emitted from the well resulting in a false negative (kinase inhibitors result in less ATP consumption thus more light emitted), the entire reaction is subject to intentional quench to override this effect. This intentional quench is accomplished by the addition of 0.01% trypan blue to the Kinase-Glo reagents. (EXAMPLE: 100 ml 1× Kinase-Glo reagents (prepared according to product insert), 200 ml assay buffer, 7.5 ml 0.4% trypan blue.
Using Multidrop, add 30 μl to all wells of the assay plate.
Count on FUSION plate reader in luminescence mode.

`O=C(CNc1ccc(F)cc1)N/N=C/c1ccncc1` [Example 53, (4-fluoro-phenylamino)-acetic acid [1-pyridin-4-yl-meth-(E)-ylidene]-hydrazide] and `O=C(CNc1ccc(Br)cc1)N/N=C/c1ccncc1` [Example 36, (4-Bromo-phenylamino)-acetic acid [1-pyridin-4-yl-meth-(E)-ylidene]-hydrazide] fall in the same range of Ki: 1000 to 10000 nM for the first, 1000 to 10000 nM for the second.

`CC(C)c1ccccc1NCC(=O)N/N=C/c1ccncc1` [Example 69, (2-Isopropyl-phenylamino)-acetic acid [1-pyridin-4-yl-meth-(E)-ylidene]-hydrazide] and `CCc1ccccc1NCC(=O)N/N=C/c1ccncc1` [Example 68, (2-Ethyl-phenylamino)-acetic acid [1-pyridin-4-yl-meth-(E)-ylidene]-hydrazide] cannot be ordered by Ki: over 10000 nM for the first, over 10000 nM for the second.

First: CCc1ccccc1NCC(=O)N/N=C/c1c(Cl)cncc1Cl [Example 26, (2-Ethyl-phenylamino)-acetic acid [1-(3,5-dichloro-pyridin-4-yl)-ylidene]-hydrazide]
Second: O=C(CNc1ccccc1)N/N=C/c1c(Cl)cncc1Cl [Example 2, Phenylamino-acetic acid [1-(3,5-dichloro-pyridin-4-yl)-meth-(E)-ylidene]-hydrazide]
The Ki of the first is higher: 1000 to 10000 nM for the first, 100 to 1000 nM for the second. The second binds more tightly here.

Compared with `O=C(CNc1cccc(C(=O)NCCN2CCOCC2)c1)N/N=C/c1c(Cl)cncc1Cl` [Example 33, 3-{[1-(3,5-Dichloro-pyridin-4-yl)-meth-(E)-ylidene-hydrazinocarbonylmethyl]-amino}-N-(2-morpholin-4-yl-ethyl)-benzamide], `O=C(CNc1cccc(OCCN2CCOCC2)c1)N/N=C/c1c(Cl)cncc1Cl` [Example 32, [3-(2-Morpholin-4-yl-ethoxy)-phenylamino]-acetic acid [1-(3,5-dichloro-pyridin-4-yl)-meth-(E)-ylidene]-hydrazide] is higher in Ki: 10 to 100 nM for the first, 1000 to 10000 nM for the second.

`O=C(CNc1cccc(Oc2ccc(F)cc2F)c1)N/N=C/c1ccncc1` [Example 84, [3-(2,4-Difluoro-phenoxy)-phenylamino]-acetic acid [1-pyridin-4-yl-meth-(E)-ylidene]-hydrazide] and `COc1ccc(Oc2cccc(NCC(=O)NN=Cc3ccncc3)c2)cc1` (mixture of isomers) [Example 81] fall in the same range of Ki: 10 to 100 nM for the first, 10 to 100 nM for the second.

`O=C(CNc1ccccc1)N/N=C/c1ccncc1` [Example 42, Phenylamino-acetic acid [1-pyridin-4-yl-meth-(E)-ylidene]-hydrazide] and `O=C(CNc1cccc(I)c1)N/N=C/c1ccncc1` [Example 49, (3-Iodo-phenylamino)-acetic acid [1-pyridin-4-yl-meth-(E)-ylidene]-hydrazide] fall in the same range of Ki: 100 to 1000 nM for the first, 100 to 1000 nM for the second.

First: CC(=O)Nc1cccc(NCC(=O)N/N=C/c2ccncc2)c1 [Example 72, N-(3-{[1-Pyridin-4-yl-meth-(E)-ylidene-hydrazinocarbonylmethyl]-amino}-phenyl)-acetamide]
Second: CCc1cccc(NCC(=O)N/N=C/c2ccncc2)c1 [Example 59, (3-Ethyl-phenylamino)-acetic acid [1-pyridin-4-yl-meth-(E)-ylidene]-hydrazide]
The Ki of the first is higher: over 10000 nM for the first, 1000 to 10000 nM for the second. The second binds more tightly here.

`CC(C)Oc1cccc(NCC(=O)N/N=C/c2c(Cl)cncc2Cl)c1` [Example 19, (3-Isopropoxy-phenylamino)-acetic acid [1-(3,5-dichloro-pyridin-4-yl)-meth-(E)-ylidene]-hydrazide] and `O=C(CNc1cccc(I)c1)N/N=C/c1c(Cl)cncc1Cl` [Example 11, (3-Iodo-phenylamino)-acetic acid [1-(3,5-dichloro-pyridin-4-yl)-meth-(E)-ylidene]-hydrazide] fall in the same range of Ki: 1000 to 10000 nM for the first, 1000 to 10000 nM for the second.

Compared with `O=C(CNc1cccc(Oc2cccnc2)c1)N/N=C/c1ccncc1` [Example 86, [3-(Pyridin-3-yloxy)-phenylamino]-acetic acid [1-pyridin-4-yl-meth-(E)-ylidene]-hydrazide], `N#Cc1cccc(NCC(=O)N/N=C/c2ccncc2)c1` [Example 39, (3-Cyano-phenylamino)-acetic acid [1-pyridin-4-yl-meth-(E)-ylidene]-hydrazide] is higher in Ki: 100 to 1000 nM for the first, 1000 to 10000 nM for the second.

First: O=C(CNc1ccccc1Cc1ccccc1)N/N=C/c1ccncc1 [Example 70, (2-Benzyl-phenylamino)-acetic acid [1-pyridin-4-yl-meth-(E)-ylidene]-hydrazide]
Second: CCOc1ccccc1NCC(=O)N/N=C/c1ccncc1 [Example 66, (2-Ethoxy-phenylamino)-acetic acid [1-pyridin-4-yl-meth-(E)-ylidene]-hydrazide]
The Ki of the first is lower: 1000 to 10000 nM for the first, over 10000 nM for the second. The first binds more tightly here.

`CS(=O)(=O)Nc1cccc(NCC(=O)N/N=C/c2c(Cl)cncc2Cl)c1` [Example 24] and `Cc1ccc(NCC(=O)N/N=C/c2c(Cl)cncc2Cl)cc1` [Example 17, p-Tolylamino-acetic acid [1-(3,5-dichloro-pyridin-4-yl)-meth-(E)-ylidene]-hydrazide] fall in the same range of Ki: 1000 to 10000 nM for the first, 1000 to 10000 nM for the second.

`Cn1cncc1/C=N/NC(=O)CNc1cccc(Cl)c1` [Example 92, (3-Chloro-phenylamino)-acetic acid [1-(3-methyl-3H-imidazol-4-yl)-meth-(E)-ylidene]-hydrazide] and `O=C(CNc1cccc(Cl)c1)N/N=C/c1ccnc2ccccc12` [Example 91, (3-Chloro-phenylamino)-acetic acid [1-quinolin-4-yl-meth-(E)-ylidene]-hydrazide] cannot be ordered by Ki: over 10000 nM for the first, over 10000 nM for the second.

`Cc1ccc(NCC(=O)N/N=C/c2ccncc2)cc1` [Example 56, (4-Methyl-phenylamino)-acetic acid [1-pyridin-4-yl-meth-(E)-ylidene]-hydrazide] and `CC(C)c1cccc(NCC(=O)N/N=C/c2ccncc2)c1` [Example 61, (3-Isopropyl-phenylamino)-acetic acid [1-pyridin-4-yl-meth-(E)-ylidene]-hydrazide] cannot be ordered by Ki: over 10000 nM for the first, over 10000 nM for the second.

`O=C(CNc1cccc(Cl)c1)NNCc1ccncc1` [Example 95, (3-Chloro-phenylamino)-acetic acid N′-pyridin-4-ylmethyl-hydrazide] and `O=C(CNc1cccc(-n2cncn2)c1)N/N=C/c1c(Cl)cncc1Cl` [Example 31, (3-[1,2,4]Triazol-1-yl-phenylamino)-acetic acid [1-(3,5-dichloro-pyridin-4-yl)-meth-(E)-ylidene]-hydrazide] cannot be ordered by Ki: over 10000 nM for the first, over 10000 nM for the second.

For `CC(Nc1cccc(Oc2ccccc2)c1)C(=O)N/N=C/c1c(Cl)cncc1Cl` (centres unmarked) [Example 98, 2-(3-Phenoxy-phenylamino)-propionic acid [1-(3,5-dichloro-pyridin-4-yl)-meth-(E)-ylidene]-hydrazide], the Ki was over 10000 nM.
